Experimental data as given in paper PMC8548536, “Establishment of high-throughput screening HTRF assay for identification small molecule inhibitors of Skp2-Cks1” (Scientific Reports, 2021).

Assays:
[1] = target: T1, S-phase kinase associated protein 2 (Skp2) (Homo sapiens, UniProt P61024+Q13309); experiment: HTRF Skp2/Skp1-Cks1 binding inhibition assay; also CETSA of Skp2 in SGC-7901 cells
T1 construct: GST-Skp2/Skp1; with Skp1; Cks1 (His6-Cks1)

[2] = target: T1, S-phase kinase associated protein 2 (Skp2); experiment: HTRF Skp2/Skp1-Cks1 binding inhibition assay

T1 sequence (Q13309 whole entry): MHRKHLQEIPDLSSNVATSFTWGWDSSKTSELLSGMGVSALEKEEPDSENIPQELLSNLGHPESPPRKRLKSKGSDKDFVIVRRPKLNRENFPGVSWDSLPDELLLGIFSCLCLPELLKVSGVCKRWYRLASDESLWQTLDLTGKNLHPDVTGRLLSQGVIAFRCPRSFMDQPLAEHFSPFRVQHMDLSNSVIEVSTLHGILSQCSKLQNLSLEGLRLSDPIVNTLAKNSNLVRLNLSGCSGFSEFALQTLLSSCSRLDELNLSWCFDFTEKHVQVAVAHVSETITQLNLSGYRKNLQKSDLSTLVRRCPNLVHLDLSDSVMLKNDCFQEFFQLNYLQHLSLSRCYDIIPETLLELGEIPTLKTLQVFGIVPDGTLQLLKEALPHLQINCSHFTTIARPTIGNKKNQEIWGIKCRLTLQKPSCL
T1 sequence (P61024 2-79): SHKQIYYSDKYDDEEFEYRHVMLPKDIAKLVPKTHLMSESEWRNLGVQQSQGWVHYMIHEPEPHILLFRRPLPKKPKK
T1 sequence (P63208 2-163 partner): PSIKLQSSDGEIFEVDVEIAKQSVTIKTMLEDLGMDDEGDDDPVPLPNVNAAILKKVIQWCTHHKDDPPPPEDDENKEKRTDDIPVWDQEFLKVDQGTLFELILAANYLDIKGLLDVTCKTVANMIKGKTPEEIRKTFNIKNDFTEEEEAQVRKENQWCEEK

SMILES | IC50 [1] | IC50 [2]
C=CC(=O)Nc1cccc(-c2nnc(SCc3ccccc3)n2C)c1 [SYK-031] | 2.14 ± 0.76 µM | 
COC(=O)c1ccc(CCc2cc(O)ccc2O)cc1 [Skp2-1, NSC681152] |  | 58.7 ± 1.62 µM
Cc1ccc(S(=O)(=O)Nc2cccc3cccnc23)cc1 [Skp2-2] | 27.8 ± 1.44 µM | 
